According to patent US5420135A, “Substituted quinoline derivatives” (Smith Kline & French Laboratories Limited, priority 1989, dated 1995):

Test system: isolated rat osteoclasts
Experiment: Bone resorption by isolated rat osteoclasts on cortical bone slices
Assay type: cell-based
Settings: Osteoclast, 18 hours, Mean ± SEM, n = 12, control 100 ± 27
Method: Bone resorption was measured by the actions of isolated rat osteoclasts on cortical bone slices (Zaidi et al. Quarterly Journal of Experimental Physiology 1988 73:471-485). Newborn Wistar rats were killed by decapitation and their femora and tibiae removed. Osteoclasts were mechanically disaggregated by curetting the bones into medium followed by agitation with a pipette. Osteoclasts were separated from other cells by sedimentation onto bone slices (15 minutes, 37°) after which the slices were removed and gently washed. The bone slices were then incubated in the presence of test compounds (37°, 10% humidified CO2, 18 hours) and fixed with glutaraldehyde. The degree of bone resorption was then assessed by the area of erosions produced by the osteoclasts using scanning electron microscopy. Data were meaned from measurements of 6 bone slices in each of two independent experiments.
Test compounds were dissolved in ethanol which was also added to control incubations (1%) in the absence of compound.

`Cc1ccccc1-n1nnc2cnc3ccccc3c21` [Example 2, 1-(2-Methylphenyl)triazolo[4,5-c]quinoline] showed an activity at 10 µM (Conc. 10 μM) of 49 ± 20% and an activity at 100 µM (Conc. 100 μM) of 0%.
